Reference: patent publication US20100216661A1, “Diagnostic Assay” (priority 2007, published 2010)

How the values were obtained:
[1] = tested on: polyclonal anti-RhD preparation (Human Anti-D Ig); assay: Biopanning of phage-peptide libraries with polyclonal anti-RhD; format: binding; conditions: biopanning of phage-peptide libraries with polyclonal anti-RhD preparation
From the text: (§1) Three different phage libraries from New England Biolabs. (Ph.D. 7 and Ph.D. 12 displaying linear 7- and 12-mer peptides, respectively and Ph.D. C7C displaying 7-mer peptides constrained by a disulphide bridge at their termini) and a linear 15mer library (kindly provided by Prof. George P. Smith, University of Missouri) were used in biopanning experiments with 10 different monoclonal antibodies and a polyclonal preparation (Table 1).
(§2) For each target antibody/library combination, a separate well of a 96-well Immulon 4 flat-bottomed ELISA plate (Thermo Labsystems) was coated with 5 μg of antibody in 150 μl ELISA coating buffer (15 mM Na2CO3, 35 mM NaHCO3, pH9.6). Plates were sealed and incubated at 4° C. overnight. Unbound antibody was discarded and 350 μl of blocking buffer (0.1M NaHCO3/3% skimmed milk powder) was added to each well. Plates were sealed and incubated for 1 hour at 4° C. The blocking buffer was removed and the wells were washed six times with 300 μl TBS/0.1% Tween 20. Approximately 2×10^11 plaque forming units (pfu) in 100 μl TBS/0.1% Tween 20 were added to each well and the plates were incubated at room temperature for 1 hour. Wells were washed ten times with 300 μl TBS/0.1% Tween 20. Bound phage were eluted by incubation with 100 μl of 0.2M glycine-HCl/BSA, pH2.2 (1 mg/ml) for 10 minutes, then neutralised with 15 μl of 1M Tris-HCL (pH9.1). An aliquot of the Round 1 eluate was removed and titred. The remainder of the eluted phage were amplified by infection of E. coli ER2538 cells for 4.5 hours at 37° C. The cultures were centrifuged for 10 minutes at 10,000 rpm at 4° C. The supernatants were recovered, ⅙ volume PEG/NaCl (20% polyethylene glycol 8000; 2.5M NaCl) added, then incubated overnight at 4° C. The PEG-precipitated phage were centrifuged at 10,000 rpm for 15 minutes at 4° C. The supernatant was removed and the phage pellet resuspended in 200 μl TBS. Two further rounds of panning were undertaken and approximately 2×10^11 pfu of the Round 2 or Round 3 amplified eluates were used as input phage. Round 3 eluates were titrated but not amplified. Individual plaques were amplified and subjected to PCR amplification, prior to DNA sequence analysis. The specificity of peptide-antibody binding was subsequently determined using both phage ELISA and SPOTs techniques.

[2] = tested on: anti-RhD monoclonal antibody T10 (LHM76/55); assay: Biopanning of phage-peptide libraries with anti-RhD T10; format: binding, Human; conditions: biopanning of phage-peptide libraries with anti-RhD monoclonal T10
From the text: as §1, §2

Substance	Panning Antibody (antibody that selected the phage-peptide in biopanning) [1]	Panning Antibody (antibody that selected the phage-peptide in biopanning) [2]
RhD 93 (FHRPYYWPPTPL)	RhD	
RhD 96 (SHWWTSILATPS)	RhD	
RhD 63 (RNALHSLRTLSSSWV)		RhD T10
RhD 81 (FHSTWPWREAEG)	RhD	
RhD 58 (FHQRLWWPTHTP)		RhD T10
RhD 99 (GQKTHNPFHLHP)	RhD	
RhD 97 (FHWHLQPQLWSY)	RhD	
RhD 70 (LPWYQLT)		RhD T10
RhD 82 (FHANWPQSARDV)	RhD	
RhD 65 (RPHLLDWELNPV)		RhD T10
RhD 57 (TLVYQPPWYRIA)		RhD T10
RhD 41 (WYTKAPY)		RhD T10
RhD 71 (VPWFRAP)		RhD T10
RhD 53 (STYLNGPTGVDL)		RhD T10
RhD 72 (WHPPQPS)		RhD T10
RhD 76 (LPWFQLP)		RhD T10
RhD 55 (FHRWPTWPLPSP)		RhD T10
RhD 59 (WHWRLYSANTP)		RhD T10
RhD 79 (LPWYRH)		RhD T10
RhD 62 (LWRLRGGSFPVISHG)		RhD T10
RhD 60 (HAAFEPRGDVRHTLL)		RhD T10
RhD 44 (HWKHPWGAWDTL)		RhD T10
RhD 47 (SMSSMLLAAQTV)		RhD T10

Substance	Panning Antibody (antibody that selected the phage-peptide in biopanning) [1]	Panning Antibody (antibody that selected the phage-peptide in biopanning) [2]
RhD 61 (SIWDLPLQYRGFGTS)		RhD T10
RhD 68 (LDTYWYREHFRR)		RhD T10
RhD 78 (LPWYATP)		RhD T10
RhD 48 (QSHYRHISPAQV)		RhD T10
RhD 64 (FHRHWWPPTLST)		RhD T10
RhD 69 (VHWRWWDQRVPM)		RhD T10
RhD 42 (WYHKAPY)		RhD T10
Rh0 43 (YYQRAPY)		RhD T10
RhD 74 (FWWQVPA)		RhD T10
RhD 50 (WHWTFYTPLEST)		RhD T10
RhD 75 (TQWYQIA)		RhD T10
RhD 77 (TPLSKST)		RhD T10
RhD 46 (WHKNWWPPSTPN)		RhD T10
RhD 49 (SMSQPKSQVNAH)		RhD T10
RhD 51 (ESLSTDTYAILL)		RhD T10
RhD 67 (VWAVSLPWYRYP)		RhD T10
RhD 80 (IPWYKIT)		RhD T10
RhD 66 (FHWRWSTFPEYP)		RhD T10
RhD 56 (VPPWVSVRTGPG)		RhD T10
RhD 45 (WHWQWTPWSIQP)		RhD T10
RhD 73 (FHENWPS)		RhD T10
RhD 52 (HSSWYIQHFPPL)		RhD T10
RhD 54 (QHKTSITGHLEP)		RhD T10
